Values quoted from earlier work in patent US6071508A, “Preparation of formulations for electrotransport drug delivery” (Alza Corporation, priority 1997, dated 2000).
Counter-ions that a name gives are not always drawn.

Conditions: known value

pKa, pyrimidinamine functionality: > 11.0
pKa, secondary amine group: 8.3
SMILES: c1ccc2c(c1)CC[C@H](CNCCCNC1=NCCCN1)O2 [drug salt of Example 1, (-)-(R)-N-[(3,4-dihydro-2H-1-benzopyran-2-yl)methyl]-N'-(1,4,5,6-tetrahydropyrimidinyl)-1,3-propanediamine dihydrochloride]
